# Publication PMC10388204, “Different conformational dynamics of SNARE protein Ykt6 among yeast and mammals” (The Journal of Biological Chemistry, 2023)
# Numbering of substitutions follows the chain as printed.
# Key:
# Test in all cases: isothermal titration calorimetry
# Format in all cases: binding
# [1] = molecular target: T1, yYkt6ΔC (Saccharomyces cerevisiae, UniProt P36015, T46L/Q57A/L169A); details: 50 mM Tris pH 8.0, 100 mM NaCl, 1 mM EDTA, 1 mM β-mercaptoethanol, 25 °C
# T1 construct: gene YKT6; residues 1-195, C-terminal CCIIM motif removed; His6 tag; pET-M3C; E. coli BL21(DE3); not lipidated
# T1 sequence (P36015 1-195 T46L/Q57A/L169A): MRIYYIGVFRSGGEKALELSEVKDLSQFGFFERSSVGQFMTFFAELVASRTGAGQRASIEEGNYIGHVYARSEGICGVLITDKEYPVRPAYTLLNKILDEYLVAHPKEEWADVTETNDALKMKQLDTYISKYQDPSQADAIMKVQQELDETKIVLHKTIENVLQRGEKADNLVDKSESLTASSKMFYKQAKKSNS
# [2] = molecular target: T2, yYkt6ΔC (Saccharomyces cerevisiae, UniProt P36015, T46L/Q57A/L172A); details: 50 mM Tris pH 8.0, 100 mM NaCl, 1 mM EDTA, 1 mM β-mercaptoethanol, 25 °C
# T2 construct: gene YKT6; residues 1-195, C-terminal CCIIM motif removed; His6 tag; pET-M3C; E. coli BL21(DE3); not lipidated
# T2 sequence (P36015 1-195 T46L/Q57A/L172A): T1 sequence (P36015 1-195 T46L/Q57A/L169A) with A169L, L172A
# [3] = molecular target: T3, yYkt6ΔC (Saccharomyces cerevisiae, UniProt P36015); details: 50 mM Tris pH 8.0, 100 mM NaCl, 1 mM EDTA, 1 mM β-mercaptoethanol, 25 °C
# T3 construct: gene YKT6; residues 1-195, C-terminal CCIIM motif removed; His6 tag; pET-M3C; E. coli BL21(DE3); not lipidated
# T3 sequence (P36015 1-195): T1 sequence (P36015 1-195 T46L/Q57A/L169A) with L46T, A57Q, A169L
# [4] = molecular target: T4, rYkt6ΔC (Rattus norvegicus, UniProt Q5EGY4, S174D); details: 50 mM Tris pH 8.0, 100 mM NaCl, 1 mM EDTA, 1 mM β-mercaptoethanol, 25 °C
# T4 construct: gene Ykt6; residues 1-193, C-terminal CCAIM motif removed; His6 tag; pET-M3C; E. coli BL21(DE3); not lipidated
# T4 sequence (Q5EGY4 1-193 S174D): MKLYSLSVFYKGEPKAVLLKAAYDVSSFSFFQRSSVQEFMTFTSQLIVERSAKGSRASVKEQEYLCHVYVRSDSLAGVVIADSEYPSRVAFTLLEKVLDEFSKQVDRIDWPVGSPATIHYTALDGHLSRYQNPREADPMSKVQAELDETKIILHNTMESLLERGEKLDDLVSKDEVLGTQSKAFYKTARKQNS
# [5] = molecular target: T5, yYkt6ΔC (Saccharomyces cerevisiae, UniProt P36015, Q57A/T46L)
# T5 construct: gene YKT6; residues 1-195, C-terminal CCIIM motif removed; His6 tag; pET-M3C; E. coli BL21(DE3); not lipidated
# T5 sequence (P36015 1-195 T46L/Q57A): T1 sequence (P36015 1-195 T46L/Q57A/L169A) with A169L
# [6] = molecular target: T6, rYkt6ΔC (Rattus norvegicus, UniProt Q5EGY4)
# T6 construct: gene Ykt6; residues 1-193, C-terminal CCAIM motif removed; His6 tag; pET-M3C; E. coli BL21(DE3); not lipidated
# T6 sequence (Q5EGY4 1-193): T4 sequence (Q5EGY4 1-193 S174D) with D174S
# [7] = molecular target: T7, yYkt6ΔC (Saccharomyces cerevisiae, UniProt P36015, S176D); details: 50 mM Tris pH 8.0, 100 mM NaCl, 1 mM EDTA, 1 mM β-mercaptoethanol, 25 °C
# T7 construct: gene YKT6; residues 1-195, C-terminal CCIIM motif removed; His6 tag; pET-M3C; E. coli BL21(DE3); not lipidated
# T7 sequence (P36015 1-195 S176D): T1 sequence (P36015 1-195 T46L/Q57A/L169A) with L46T, A57Q, A169L, S176D
smiles,measurement,setting,value
"CCCCCCCCCCCCOP(=O)([O-])OCC[N+](C)(C)C [DPC, dodecylphosphocholine]",no binding,[1],ITC measurements showed that these mutations disrupt the binding with DPC
same,no binding,[2],ITC measurements showed that these mutations disrupt the binding with DPC
same,no binding,[3],It turns out that DPC could not bind to yYkt6ΔC
same,no binding,[4],ITC experiments showed that DPC could not bind to rYkt6ΔC-S174D mutant
same,Kd,[5],33.3 µM
same,Kd,[6],38.5 µM
same,no binding,[7],the phospho-mutant yYkt6ΔC-S176D could not bind DPC either
